We go through 1 molecule from US20060173015A1, “Cyclohexyldiamines as selective alpha 1a/1d adrenoreceptor antagonists for the treatment of benign prostatic hypertrophy and lower urinary tract symptoms” (priority 2004, published 2006).

The target in one assay is T1, α1b-AR (Homo sapiens, UniProt P35368).
T1 sequence (P35368 1-520): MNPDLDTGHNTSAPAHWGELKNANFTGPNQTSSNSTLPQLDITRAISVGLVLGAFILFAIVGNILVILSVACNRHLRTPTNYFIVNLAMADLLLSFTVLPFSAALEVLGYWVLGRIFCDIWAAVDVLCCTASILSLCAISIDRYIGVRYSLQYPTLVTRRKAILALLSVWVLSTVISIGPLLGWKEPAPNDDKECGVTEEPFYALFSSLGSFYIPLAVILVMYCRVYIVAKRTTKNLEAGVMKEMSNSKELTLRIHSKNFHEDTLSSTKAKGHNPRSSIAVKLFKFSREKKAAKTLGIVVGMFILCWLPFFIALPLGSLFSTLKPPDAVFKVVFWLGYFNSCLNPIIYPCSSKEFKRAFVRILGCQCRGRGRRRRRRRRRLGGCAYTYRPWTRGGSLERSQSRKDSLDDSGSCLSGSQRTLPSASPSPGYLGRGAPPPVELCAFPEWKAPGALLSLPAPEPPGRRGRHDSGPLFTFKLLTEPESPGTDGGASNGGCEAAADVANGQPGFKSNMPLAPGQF
As to the kind of experiment: α1-Adrenergic receptor radio-ligand (125I-HEAT) binding assay, α1b subtype. As to conditions: Receptor Binding, Ki α1b-AR, COS-7 cell membranes, 125I-HEAT.

Another assay concerns the target T2, α1a-AR (Homo sapiens, UniProt P35348).
T2 construct: expressed in transfected cells; host or cells: COS-7
T2 sequence (P35348 1-466): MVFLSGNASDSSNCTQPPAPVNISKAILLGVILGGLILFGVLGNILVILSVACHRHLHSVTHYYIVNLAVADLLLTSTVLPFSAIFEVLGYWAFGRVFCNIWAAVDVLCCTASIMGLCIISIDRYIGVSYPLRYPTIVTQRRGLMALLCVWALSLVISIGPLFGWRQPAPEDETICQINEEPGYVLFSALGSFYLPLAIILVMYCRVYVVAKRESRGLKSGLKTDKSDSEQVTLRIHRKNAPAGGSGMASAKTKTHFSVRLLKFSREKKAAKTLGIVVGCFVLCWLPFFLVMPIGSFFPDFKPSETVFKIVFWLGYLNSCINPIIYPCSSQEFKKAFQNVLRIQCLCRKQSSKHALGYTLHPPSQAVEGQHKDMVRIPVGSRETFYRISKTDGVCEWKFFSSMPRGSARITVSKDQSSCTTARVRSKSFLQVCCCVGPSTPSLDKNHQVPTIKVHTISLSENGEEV
As to the kind of experiment: α1-Adrenergic receptor radio-ligand (125I-HEAT) binding assay, α1a subtype. The settings on record: COS-7 cell membranes, 125I-HEAT. In a few lines:
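Membranes from COS-7 cells transfected with the α1a-AR were incubated with 50 pM final ¹²⁵I-HEAT and test compound (1 pM–10 μM final, half-log steps) in Tris/EDTA/NaCl buffer pH 7.4 for 1 hr at rt. Bound radioactivity was counted after GF/C filtration, in triplicate.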

In the case of `COc1ccc(S(=O)(=O)N[C@H]2CC[C@@H](N3CCN(c4ccccc4OCC(F)(F)F)CC3)CC2)cc1OC` [Cpd 69, 3,4-Dimethoxy-N-cis-(4-{4-[2-(2,2,2-trifluoro-ethoxy)-phenyl]-piperazin-1-yl}-cyclohexyl)-benzenesulfonamide], the figures for the Ki on α1b-AR and on α1a-AR were 100 nM and 1.2 nM, respectively.
